Converted amounts (≈) assume the structure as drawn. Values belong to the compound of their own block, whether it stands above or below them.
What was measured:
[1] = system: unstriped musculature (isolated rat stomach); assay: Effect on the unstriped musculature (isolated rat stomach according to Vane); type: cell-based, rat (Wistar); details: for EC50: 37° C, activity relative to contraction after 600 ng/ml PGA2, Table 1, read-out: Action on the unstriped musculature (isolated rat stomach) ED50
Experimental: Effect on the unstriped musculature (isolated rat stomach according to Vane, Br. J. Pharmac. Chemother., 12 344 (1957)).
The test was carried out on Wistar rats of both sexes having a weight of 200 to 220 g. The animals were killed by a blow onto the neck, the stomach was rapidly taken out and put into a Petri dish containing a pre-heated cancer solution. The fundus which is easily to be distinguished from the pyloric part because of its grey color, was separated and opened longitudinally by a longitudinal cut. Transversal cuts in counter-direction to each other led to a stripe which could be hung into the organ bath. The organ bath contained the usual cancer solution which was maintained at a temperature of 37° C and which was risen in bubbles with a mixture of 95 % O2 and 5 % CO2. A writing lever charged with 1 g served to register on a kymograph the contractions produced by adding the substance to be examined to the organ bath. The test criterion was the contraction occurring after the addition of the substance to be examined. The degree of activity was determined by comparing the contraction occurring after 600 ng/ml PGA2. The values expressed in % with regard to the comparison preparation were used to draw a dose-activity-curve which allowed to determine the medium activity dose.
All substances were present as stock-solutions in absolute alcohol and were diluted to their final concentration with phosphate buffer (pH = 7.4).

[2] = system: bronchospasm by acetylquoline (Guinea pig); assay: Bronchospasmolytic activity according to Konzett-Rossler, acetylquoline bronchospasm; type: in vivo; details: Cavia porcellus, iv, irritant acetylquoline, read-out: Bronchospasmolysis ID50, acetylquoline
Experimental: (§1) test of intravenously administered preparations for bronchospasmolytic activity according to Konzett-Rossler.
(§2) Except for irrelevant modifications, the test arrangement used largely corresponded to the description given by H. Konzett and R. Rossler, Arch. exp. Path. Pharmakol. 195, 71 (1940)). Test animals were male white Guinea pigs having a weight of 400 to 500 g. They were anesthesized with hexobarbital and urethane. All preparations to be administered were diluted with phosphate buffer (pH = 7.4) and administered in a volume of 0.1 ml.
(§3) Physiological or pharmacological effects were registered by measuring the air volume in the lung when the maximum blowing pressure was kept constant and a constant volume was maintained by respiration above atmospheric pressure. Capacity modifications in the respiratory tract show themselves in an increase or decrease of the air volume absorbed by the lung under the given constant blowing pressure. To produce a heavy bronchospasm acetylquoline or histamine were injected by the intravenous route. The dosage unit of the irritant was chosen such that an about 70 to 80 % decrease of the absorption capacity of the lung was obtained. The substance to be examined was administered by the intravenous route in the V. jugularis. 30 seconds thereafter the already evaluated dosage unit of the irritant was injected once more. The medium inhibition dose was red off from the dose activity curve drawn either graphically or by means of regression analysis.

[3] = system: bronchospasm by histamine (Guinea pig); assay: Bronchospasmolytic activity according to Konzett-Rossler, histamine bronchospasm; type: in vivo; details: for ED50: Cavia porcellus, iv, Guinea pig, irritant histamine, read-out: Bronchospasmolysis ID50, Histamine
Experimental: as §1, §2, §3

[4] = system: blood pressure (cat); assay: Test for the effect on the blood circulation (hypotensive properties, Kannegiesser and Lee); type: in vivo
Experimental: Test for the effect on the blood circulation
The hypotensive properties were examined in accordance with the methods described by Kannegiesser and Lee, Nature 229, 498 (1971).
Test animals were cats of both sexes having a weight of 2.0 to 3.0 kg.
The animals were anesthesized with pentobarbital in an amount of 1.7 to 2.8 mg/ml in 0.9 % NaCl-solution as continuous infusion with 5 mg/kg/hour and pretreated with pentolinium (Ansolysen, May & Baker) with 10 mg/animal by the intraperitoneal route. The test substances were administered through the Vena jugularis. The blood pressure was measured in the A. carotis ext. directly and recorded by means of a Statham pressure sensor on a multi-channel recorder.
The maximum change of the systolic and diastolic blood pressure was measured in mm Hg.
All test preparations were present as stock solutions in absolute alcohol and were diluted to the end concentration immediately before the test beginning in phosphate buffer (pH = 7.4).

SMILES: CCCCCC(O)C=C[C@H]1CCC(O)[C@@H]1CC=CCOCC(=O)O (mixture of isomers) [Example 29 A, rac. 9,15-dihydroxy-3-oxa-5,13-trans-prostadienic acid]
ED50 in the isolated rat stomach ([1]; isolated rat stomach): 3.1 µg/mL (≈ 9.11 µM)

SMILES: CCCCCC(O)/C=C/C1CCC(=O)C1CCCC(C)CCC(=O)O (mixture of isomers) [Example 6, rac. 15-α-Hydroxy-4-methyl-9-oxo-13-trans-prostenoic Acid]
EC50 ([1]; isolated rat stomach): 0.5 µg/mL
ED50 [2]: 0.5 µg/kg
ED50 [3]: 0.9 µg/kg
Blood pressure (modifications in mm Hg), first value (systolic) ([4]; after 5 μ/kg i.v. (cat)): -45 mm Hg
Blood pressure (modifications in mm Hg), second value (diastolic) ([4]; after 5 μ/kg i.v. (cat)): -50 mm Hg

SMILES: CCCCCC(O)/C=C/C1CCC(=O)C1CCC(C)CCCC(=O)O (mixture of isomers) [Example 5, rac. 15-α-Hydroxy-5-methyl-9-oxo-13-trans-prostenoic Acid]
spasmogen activity ([1]; in words): good spasmogen activity
EC50 ([1]; isolated rat stomach): 0.2 µg/mL
ED50 [2]: 0.4 µg/kg
bronchodilating activity ([3]; in words, irritant not specified): good bronchodilating activity
Blood pressure (modifications in mm Hg), first value (systolic) ([4]; after 5 μ/kg i.v. (cat)): -20 mm Hg
Blood pressure (modifications in mm Hg), second value (diastolic) ([4]; after 5 μ/kg i.v. (cat)): -30 mm Hg
blood-pressure lowering activity ([4]; in words, compared with 15-α-hydroxy-9-oxo-13-trans-prostenoic acid): reduced as compared with 15-α-hydroxy-9-oxo-13-trans-prostenoic acid

Continued, in another order:

EC50 ([1]; isolated rat stomach): 0.1 µg/mL
SMILES: CCCCCC(O)/C=C/C1CCC(=O)C1CCCCCCC(=O)O (mixture of isomers) [Example 4, rac. 15-α-Hydroxy-9-oxo-13-trans-prostenoic Acid]
ED50 [2]: 0.1 µg/kg
ED50 [3]: 0.1 µg/kg
Blood pressure (modifications in mm Hg), first value (systolic) ([4]; at 0.5 μg/kg i.v. (cat)): -22 mm Hg
Blood pressure (modifications in mm Hg), second value (diastolic) ([4]; at 0.5 μg/kg i.v. (cat)): -27 mm Hg

EC50 ([1]; isolated rat stomach): 1 µg/mL
SMILES: CCCCCC(O)/C=C/C1CCC(=O)C1CCCCC(C)CC(=O)O (mixture of isomers) [Example 7, rac. 15-α-Hydroxy-3-methyl-9-oxo-13-trans-prostenoic Acid]
ED50 [2]: 1 µg/kg
ED50 [3]: 4 µg/kg
Blood pressure (modifications in mm Hg), first value (systolic) ([4]; after 5 μ/kg i.v. (cat)): -10 mm Hg
Blood pressure (modifications in mm Hg), second value (diastolic) ([4]; after 5 μ/kg i.v. (cat)): -20 mm Hg

EC50 ([1]; isolated rat stomach): 1.3 µg/mL
SMILES: CCCCCC(O)/C=C/C1CCC(=O)C1CCCCCC(C)C(=O)O (mixture of isomers) [Example 8, rac. 15-α-Hydroxy-2-methyl-9-oxo-13-trans-prostenoic Acid]
ED50 [2]: > 10 µg/kg
Blood pressure (modifications in mm Hg), one value printed (systolic and diastolic not separated) ([4]; after 5 μ/kg i.v. (cat)): 0 mm Hg

Reference: US4078083A, “Novel prostanoic acids” (Hoechst Aktiengesellschaft, priority 1973, dated 1978)
